The target of one assay is MC1-R (Mus musculus, UniProt Q01727). As to the kind of experiment: Competitive inhibition binding assay, 125I-NDP-alpha-MSH, B-16 mouse melanoma cell membranes. The note with it: for percent inhibition of 125I-NDP-alpha-MSH binding, MC1-R (B-16): B-16 mouse melanoma cell membranes, 0.4 nM 125I-NDP-alpha-MSH, mean of triplicate, peptide concentration not given; for Ki: B-16 cells, read-out: Ki MC-1 B-16; for MC1-R (B-16) inhibition of 125I-NDP-alpha-MSH binding: peptide conc. 1 μM.
Chain of MC1-R (Q01727 whole entry): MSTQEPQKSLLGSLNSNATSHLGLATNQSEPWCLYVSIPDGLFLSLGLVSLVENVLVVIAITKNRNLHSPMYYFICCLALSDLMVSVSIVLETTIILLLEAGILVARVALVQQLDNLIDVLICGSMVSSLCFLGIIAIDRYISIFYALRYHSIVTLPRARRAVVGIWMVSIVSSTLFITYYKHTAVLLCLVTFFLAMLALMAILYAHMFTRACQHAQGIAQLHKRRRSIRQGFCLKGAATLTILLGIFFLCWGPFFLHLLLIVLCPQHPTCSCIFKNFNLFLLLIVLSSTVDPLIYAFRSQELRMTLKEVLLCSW

The next assay deals with T1, hMC5-R (Homo sapiens, UniProt P33032).
T1 construct: expressed in transfected cells
T1 sequence (P33032 whole entry): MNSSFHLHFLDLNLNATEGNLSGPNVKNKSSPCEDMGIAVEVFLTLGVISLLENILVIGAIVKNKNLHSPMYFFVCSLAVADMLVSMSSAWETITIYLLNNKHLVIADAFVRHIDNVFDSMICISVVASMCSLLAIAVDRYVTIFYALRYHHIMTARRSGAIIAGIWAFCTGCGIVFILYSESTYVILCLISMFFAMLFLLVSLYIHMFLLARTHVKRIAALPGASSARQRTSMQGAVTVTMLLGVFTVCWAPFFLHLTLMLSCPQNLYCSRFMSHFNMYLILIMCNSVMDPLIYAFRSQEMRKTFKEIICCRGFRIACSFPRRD
As to the kind of experiment: Competitive inhibition binding assay, 125I-NDP-alpha-MSH, hMC5-R membranes. The note with it: for percent inhibition of 125I-NDP-alpha-MSH binding, MC5-R: hMC5-R membranes, 0.4 nM 125I-NDP-alpha-MSH, mean of triplicate, peptide concentration not given; for Ki: membranes, read-out: Ki MC-5 Mem.

In assay [1] the target is T2, MC4-R (Homo sapiens, UniProt P32245). As to the kind of experiment: Competitive inhibition binding assay, 125I-NDP-alpha-MSH, hMC4-R membranes. The note with it: for percent inhibition of 125I-NDP-alpha-MSH binding, MC4-R: hMC4-R membranes, 0.4 nM 125I-NDP-alpha-MSH, mean of triplicate, peptide concentration not given; for Ki: membranes, read-out: Ki MC-4 Mem. The arrangement: expressed in transfected cells.
T2 sequence (P32245 whole entry): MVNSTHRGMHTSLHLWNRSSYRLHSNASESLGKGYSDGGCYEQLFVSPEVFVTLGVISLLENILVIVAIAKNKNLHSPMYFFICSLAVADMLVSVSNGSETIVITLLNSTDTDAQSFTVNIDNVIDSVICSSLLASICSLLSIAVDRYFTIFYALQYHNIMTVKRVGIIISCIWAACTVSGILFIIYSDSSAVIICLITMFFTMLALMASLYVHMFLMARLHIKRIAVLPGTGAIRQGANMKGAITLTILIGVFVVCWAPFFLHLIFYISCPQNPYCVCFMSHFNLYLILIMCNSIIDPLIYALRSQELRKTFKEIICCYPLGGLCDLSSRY

The next assay deals with T3, hMC3-R (Homo sapiens, UniProt P41968).
T3 construct: expressed in transfected cells
T3 sequence (P41968 whole entry): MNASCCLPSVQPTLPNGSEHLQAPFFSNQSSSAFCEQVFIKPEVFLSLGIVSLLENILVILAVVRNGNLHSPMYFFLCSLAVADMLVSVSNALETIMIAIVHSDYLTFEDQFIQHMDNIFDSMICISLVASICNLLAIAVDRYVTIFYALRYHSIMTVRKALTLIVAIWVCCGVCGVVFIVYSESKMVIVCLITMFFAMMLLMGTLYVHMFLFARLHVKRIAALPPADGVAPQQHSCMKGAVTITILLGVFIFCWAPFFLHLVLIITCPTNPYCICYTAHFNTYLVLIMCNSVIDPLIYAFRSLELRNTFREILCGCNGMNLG
As to the kind of experiment: Competitive inhibition binding assay, 125I-NDP-alpha-MSH, hMC3-R membranes. The note with it: for percent inhibition of 125I-NDP-alpha-MSH binding, MC3-R: hMC3-R membranes, 0.4 nM 125I-NDP-alpha-MSH, mean of triplicate, peptide concentration not given; for Ki: membranes, read-out: Ki MC-3 Mem.

The target of assay [2] is T2, MC4-R. Kind of assay: Functional evaluation: intracellular cAMP accumulation in HEK-293 cells expressing MC4-R (agonist/antagonist status). The note with it: with or without alpha-MSH, 1 hour at 37° C. The arrangement: expressed in transfected cells; host or cells: HEK-293. It counts as cell-based. The procedure:
The Ki (nM) of certain peptides were determined, as was the agonist/antagonist status with respect to MC4-R. Functional evaluation of peptides at MC4-R was performed by measuring the accumulation of intracellular cAMP in HEK-293 cells expressing MC4-R. Antagonistic activity was determined by measuring the inhibition of α-MSH-induced cAMP levels following exposure to the compounds. Cells, suspended in Earle's Balanced Salt Solution containing 10 mM HEPES, pH 7.5, 5 mM MgCl2, 1 mM glutamine, 0.1% albumin and 0.6 mM 3-isobutyl-1-methyl-xanthine, a phosphodiesterase inhibitor, were plated in 96 well plates at a density of 0.5×10^5 cells per well. Cells were incubated with the test peptides in the presence or absence of α-MSH for 1 hour at 37° C. cAMP levels were measured by EIA (Amersham) in the cell lysates. Data analysis and EC50 values were determined using nonlinear regression analysis with Prism Graph-Pad software.

Non-standard residues stand in square brackets, D forms with d. Residues, ends and D or L forms follow the SMILES beside them. *: point of attachment. dPhe(4-Cl) = N[C@H](Cc1ccc(Cl)cc1)C(=O)O; d2Nal = N[C@H](Cc1ccc2ccccc2c1)C(=O)O; Nle = CCCC[C@H](N)C(=O)O; Ahp = NCCCCCCC(=O)O; Bn = c1ccc(C*)cc1

For the compound “2′-naphthylacetyl-Ala-D-Phe(4-Cl)-Arg-Trp-NH2”, the “percent inhibition of 125I-NDP-alpha-MSH binding, MC1-R (B-16)” value (shortened to “percent inhibition … (B-16)”) on MC1-R is 45%.

As for “2′-naphthylacetyl-D-Phe(4-Cl)-Arg-Trp-NH2”, the “percent inhibition of 125I-NDP-alpha-MSH binding, MC5-R” value (shortened to “percent inhibition … MC5-R”) on hMC5-R turned out to be 58%.

Take “2′-naphthylacetyl-Inp-D-Phe(4-Cl)-Arg-Trp-NH2”: on MC4-R [1], the “percent inhibition of 125I-NDP-alpha-MSH binding, MC4-R” value (from here on “percent inhibition … MC4-R”) is 58%.

For the compound “2′-naphthylacetyl-Tle-D-Phe(4-Cl)-Arg-Trp-NH2”, the “percent inhibition … (B-16)” value at MC1-R worked out at 67%.

As for “2′-naphthylacetyl-beta-Ala-D-Nal 2-Arg-Trp-NH2”, on hMC3-R, the “percent inhibition of 125I-NDP-alpha-MSH binding, MC3-R” value (shortened to “percent inhibition … MC3-R”) turned out to be 58%.

As for “3′,4′-Cl2phenylacetyl-Ala-D-Phe(4-Cl)-Arg-2′-(4″-methylphenyl)ethylamide”, the “percent inhibition … MC5-R” value on hMC5-R is listed as -6%.

In the case of “3′,4′-Cl2phenylacetyl-Ala-D-Phe(4-Cl)-Lys-Trp-NH2”, at MC1-R, the “percent inhibition … (B-16)” value came out at 45%.

Consider “3′-CF3phenyl-acetyl-Ala-D-Phe(4-Cl)-Arg-Trp-NH2”, for which the “percent inhibition … MC3-R” value on hMC3-R stood at 101%.

As for “3′-CF3phenylacetyl-Ala-D-Phe(4-Cl)-Lys-Trp-NH2”, at hMC5-R, the “percent inhibition … MC5-R” value is given as 67%.

Regarding “4′-biphenyl-acetyl-Ala-D-Phe(4-Cl)-Arg-Trp-NH2”, the “percent inhibition … MC3-R” value on hMC3-R is 54%. The “percent inhibition … MC4-R” value at MC4-R [1] is on record as 88%. Further, the “percent inhibition … (B-16)” value on MC1-R turned out to be 0%. Further, the “percent inhibition … MC5-R” value on hMC5-R came out at 37%.

For the compound “4′-phenylbutylaminocarbonyl-D-Phe(4-Cl)-Arg-Trp-NH2”, the “percent inhibition … MC4-R” value on MC4-R [1] stood at 45%.

For “7′-amino-heptanoyl-Ala-D-Phe(4-Cl)-Arg-Trp-NH2”, the “percent inhibition … (B-16)” value on MC1-R is 58%.

For the compound “7′-amino-heptanoyl-Ser(Bzl)-D-Phe(4-Cl)-Arg-2′,4′-dichlorobenzylamide”, the “percent inhibition … MC5-R” value on hMC5-R was -6%.

Regarding “7′-amino-heptanoyl-Ser(Bzl)-D-Phe(4-Cl)-Arg-2′-(4″-methylphenyl)ethylamide”, the “percent inhibition … MC3-R” value on hMC3-R is on record as 67%.

Regarding “7′-amino-heptanoyl-Ser(Bzl)-D-Phe(4-Cl)-Arg-4-phenyl-piperidine-4-carbonamide”, the “percent inhibition … MC3-R” value at hMC3-R came to 2%. The “percent inhibition … MC4-R” value on MC4-R [1] is reported as 13%. Also, the “percent inhibition … (B-16)” value on MC1-R is given as 5%. Also, the “percent inhibition … MC5-R” value on hMC5-R was 25%.

In the case of “7′-amino-heptanoyl-Ser(Bzl)-D-Phe(4-Cl)-Arg-Histamide”, the “percent inhibition … MC5-R” value on hMC5-R was -2%.

Consider “7′-amino-heptanoyl-Ser(Bzl)-D-Phe(4-Cl)-Arg-Tic-NH2”, for which, at MC1-R, the “percent inhibition … (B-16)” value amounted to 45%.

Turning to “7′-amino-heptanoyl-Ser(Bzl)-D-Phe(4-Cl)-Arg-Trp-Asp-OH”, at MC4-R [1], the “percent inhibition … MC4-R” value is reported as 67%.

In the case of “7′-amino-heptanoyl-Ser(Bzl)-D-Phe(4-Cl)-Arg-Trp-OH”, at MC4-R [1], the “percent inhibition … MC4-R” value was found to be 67%.

On to “7′-amino-heptanoyl-Ser(Bzl)-D-Phe(4-Cl)-alpha-(N-amidino-4′-piperidine)Gly-Trp-NH2”, for which the “percent inhibition … MC3-R” value on hMC3-R amounted to 8%. Also, on MC4-R [1], the “percent inhibition … MC4-R” value was 26%. Moreover, on MC1-R, the “percent inhibition … (B-16)” value amounted to 3%. Besides, the “percent inhibition … MC5-R” value on hMC5-R is 16%.

For the compound `N=C(N)NCCC[C@H](NC(=O)[C@@H](Cc1ccc2ccccc2c1)NC(=O)[C@H](COCc1ccccc1)NC(=O)CCCCCCN)C(=O)N[C@H](Cc1c[nH]c2ccccc12)C(N)=O` [7′-amino-heptanoyl-Ser(Bzl)-D-Nal 2-Arg-D-Trp-NH2] (H-[Ahp]S(Bn)[d2Nal]R[dW]-NH2), at hMC3-R, the “percent inhibition … MC3-R” value turned out to be 86% and the inhibitory constant (Ki) is 0.07 µM. At MC4-R [1], the “percent inhibition … MC4-R” value was 100% and the Ki was found to be 0.006 µM. Also, at MC1-R, the Ki turned out to be 1.3 µM and the “percent inhibition … (B-16)” value is recorded as -8%. In addition, on hMC5-R, the “percent inhibition … MC5-R” value worked out at 82% and the Ki came out at 0.09 µM. Besides, on MC4-R [2], the “HEK-293 (MC4-R) cells Classification” value is listed as “Antagonist”.

Turning to `N=C(N)NCCC[C@H](NC(=O)[C@@H](Cc1ccc2ccccc2c1)NC(=O)[C@H](COCc1ccccc1)NC(=O)CCCCCCN)C(=O)N[C@@H](Cc1c[nH]c2ccccc12)C(N)=O` [7′-amino-heptanoyl-Ser(Bzl)-D-Nal 2-Arg-Trp-NH2] (H-[Ahp]S(Bn)[d2Nal]RW-NH2), at hMC3-R, the “percent inhibition … MC3-R” value amounted to 93% and the Ki stood at 0.05 µM. For the same compound, at MC4-R [1], the “percent inhibition … MC4-R” value worked out at 99% and the Ki came to 0.004 µM. On MC1-R, the Ki was found to be 1.87 µM and the “percent inhibition … (B-16)” value is given as 4%. Besides, on hMC5-R, the “percent inhibition … MC5-R” value came to 82% and the Ki worked out at 0.102 µM. Further, the “HEK-293 (MC4-R) cells Classification” value on MC4-R [2] is “Antagonist”.

As to `C[C@H](NC(=O)[C@H](Cc1c[nH]c2ccccc12)NC(=O)[C@H](CCCNC(=N)N)NC(=O)[C@@H](Cc1ccc(Cl)cc1)NC(=O)[C@H](COCc1ccccc1)NC(=O)CCCCCCN)C(N)=O` [7′-amino-heptanoyl-Ser(Bzl)-D-Phe(4-Cl)-Arg-Trp-Ala-NH2] (H-[Ahp]S(Bn)[dPhe(4-Cl)]RWA-NH2), the “percent inhibition … MC3-R” value on hMC3-R is 93%. Further, the Ki on hMC3-R was 0.037 µM; on MC4-R [1], 0.002 µM; at MC1-R, 0.142 µM; on hMC5-R it was 0.112 µM. Besides, the “percent inhibition … MC4-R” value on MC4-R [1] was 100%. For the same compound, the “percent inhibition … MC5-R” value on hMC5-R is on record as 79%. On MC4-R [2], the “HEK-293 (MC4-R) cells Classification” value is listed as “Agonist”.

Consider `N=C(N)NCCC[C@H](NC(=O)[C@@H](Cc1ccc(Cl)cc1)NC(=O)[C@H](COCc1ccccc1)NC(=O)CCCCCCN)C(=O)N[C@@H](Cc1c[nH]c2ccccc12)C(=O)N[C@@H](CC(=O)O)C(N)=O` [7′-amino-heptanoyl-Ser(Bzl)-D-Phe(4-Cl)-Arg-Trp-Asp-NH2] (H-[Ahp]S(Bn)[dPhe(4-Cl)]RWD-NH2), for which the “percent inhibition … MC3-R” value on hMC3-R was determined as 73%. In addition, the Ki at hMC3-R was found to be 0.191 µM; at MC4-R [1] it was 0.009 µM; at MC1-R it was 0.76 µM; on hMC5-R it was 0.596 µM. At MC4-R [1], the “percent inhibition … MC4-R” value is 98%. Besides, on hMC5-R, the “percent inhibition … MC5-R” value was found to be 48%. Besides, the “HEK-293 (MC4-R) cells Classification” value at MC4-R [2] is on record as “Agonist”.

As for `N=C(N)NCCC[C@H](NC(=O)[C@@H](Cc1ccc(Cl)cc1)NC(=O)[C@H](COCc1ccccc1)NC(=O)CCCCCCN)C(=O)N[C@@H](Cc1c[nH]c2ccccc12)C(=O)N[C@@H](CC(=O)O)C(=O)N[C@@H](Cc1ccccc1)C(N)=O` [7′-amino-heptanoyl-Ser(Bzl)-D-Phe(4-Cl)-Arg-Trp-Asp-Phe-NH2] (H-[Ahp]S(Bn)[dPhe(4-Cl)]RWDF-NH2), at hMC3-R, the “percent inhibition … MC3-R” value came to 37% and the Ki was 0.318 µM. Moreover, at MC4-R [1], the “percent inhibition … MC4-R” value came to 100% and the Ki came out at 0.012 µM. Besides, at MC1-R, the Ki came out at 0.269 µM and the “percent inhibition … (B-16)” value was determined as 34%. Further, on hMC5-R, the “percent inhibition … MC5-R” value was 54% and the inhibition constant (Ki) turned out to be 0.386 µM. In addition, the “HEK-293 (MC4-R) cells Classification” value at MC4-R [2] is recorded as “Agonist”.

As to Ac-[Nle]AH[dF]RCW-NH2, the “MC1-R (B-16) inhibition of 125I-NDP-alpha-MSH binding” value on MC1-R worked out at 101%.

As for Ac-[Nle]AH[dF]RW-NH2, the “MC1-R (B-16) inhibition of 125I-NDP-alpha-MSH binding” value at MC1-R is on record as 101%.

Take Ac-[Nle]AH[dF]RWC-NH2: the “MC3-R inhibition of 125I-NDP-alpha-MSH binding” value on hMC3-R (peptide conc. 1 μM) was 58%.

In the case of “Ph-(CH2)2NH-CO(CH2)2CO-D-Phe(4-Cl)-Arg-Trp-NH2”, the “percent inhibition … (B-16)” value at MC1-R is 67%.

Source of the values: US7417027B2, “Linear and cyclic melanocortin receptor-specific peptides” (Palatin Technologies, Inc., priority 2001, dated 2008).
